Experimental data: patent US20150368617A1, “METHOD FOR FORMING ENDOTHELIAL CELLS” (Korea Advanced Institute of Science and Technology (KAIST), priority 2012, published 2015)

Legend:
Format in all cases: cell-based, mouse
Flk1+ MPCs [1] = assay: CM differentiation from Flk1+ MPCs in OP9 co-culture system
Description: EMG7 mouse ESCs which have ┌-myosin heavy chain (MHC) promoter driven enhanced green fluorescent protein (GFP) gene and OP9 cells were a generous gift from Dr. Jun K. Yamashita (Kyoto University). EMG7 ESCs were plated on a 0.1% gelatin coated 60p dish and maintained in a medium (GMEM, Invitrogen) containing 10% knockout serum, 2-mercaptoethanol (Invitrogen), sodium pyruvate (Invitrogen), non-essential amino acid and antibiotics (Invitrogen). leukemia inhibitory factor (LIF), Blasticidin (Invitrogen) and G418 (Invitrogen) were added in the medium at the time of the medium change. OP9 cells were maintained in a medium (alpha MEM, Invitrogen) containing 20% of fetal bovine serum (FBS), 2-mercaptoethanol (Invitrogen), L-glutamine (Invitrogen) and antibiotics (Invitrogen). The medium was changed every 2 days for both EMG7 ESCs and OP9 cells. For induction of Flk1+MPCs, EMG7 ESCs were cultured and plated on a 0.1% gelatin coated 100 p dish in the differentiation medium (alpha MEM, Invitrogen) with contained 10% FBS, 2-mercaptoethanol (Invitrogen), L-glutamine (Invitrogen) and antibiotics (Invitrogen) for 4.5 days (96-112 hours). The medium was changed every 2 days. At 4.5 days, differentiated EMG7 ESCs were harvested with 0.025% trypsin-EDTA and antigen recovery was performed in the differentiation medium for 30 minutes in an incubator. Then, cells were washed using phosphate buffered saline/10% FBS and attached with biotin-conjugated anti-mouse Flk1+ antibody (eBioscience) and […] MicroBeads (Miltenyi Biotec). Flk1+ MPCs were sorted by AutoMACS Pro Separator (Miltenyi Biotec). Sorted Flk1+ MPCs were plated onto the mitomycin-C (MMC) (Ag scientific) treated confluent OP9 cells at a density of 1-2×10^4 cells/cm^2 and cultured in the differentiation medium. The medium was changed every 2 days. CsA (a gift from Novartis Pharma, Korea) was treated in sorted Flk1+ MPCs on OP9 cells. CsA was dissolved in dimethyl sulfoxide (DMSO) (Sigma) and diluted 2┌ g/mL in the differentiation medium at the time of medium change. 10┌ M of Y27632 (purchased from Calbiochem) were treated in sorted Flk1+MPCs on OP9 cells and sorted MHC GFP+CMs at the time of medium change. Analysis and sorting for CMs were performed at day 10.5. We harvested differentiated Flk1+ MPCs on OP9 cells with 0.25% trypsin-EDTA or dissociation buffer (Invitrogen). Cardiac troponin-T (cTnT)+ and ┌ smooth muscle actin (SMA)+ cells were analyzed after permeabilization using Cytofix/Cytoperm solution (BD Biosciences) for 15 min. After permeabilization, the cells were incubated for 30 min with anti-mouse cTnT (NeoMarkers) monoclonal antibody. […] Data were analyzed using FlowJo Version 7.5.4 software (TreeStar).

Flk1+ MPCs [2] = assay: Immunofluorescence staining of differentiating Flk1+ MPCs (CD144, αSMA, PHH3)
Description: Cultured cells were fixed with 2% paraformaldehyde (PFA) and blocked with 5% goat (or donkey) serum in PBST (0.3% Triton X-100 in PBS) for 1 hr at room temperature (RT). The cells were incubated overnight at 4┌ C with the following primary antibodies: anti-mouse CD144 (clone 11D4.1, BD Pharmingen™), anti-mouse phospho-histone H3 (rabbit polyclonal, Upstate), anti-mouse cTnT (NeoMarkers), Cy3-conjugated anti-┌ SMA (clone 1A4, Sigma), and anti-mouse CD31 (clone 2H8, Chemicon). After washing in PBST 4 times, the cells were incubated for 2 hrs at RT with the following secondary antibodies: Cy3-conjugated anti-rabbit IgG (Jackson ImmunoResearch), Cy3-conjugated anti-hamster IgG (Jackson ImmunoResearch), Cy3-conjugated anti-mouse IgG antibody (Jackson ImmunoResearch) and FITC or Cy3-conjugated anti-rat (Jackson ImmunoResearch). F-actin and nuclei were stained with TRITC-phalloidin (Invitrogen) and 4′,6-diamidino-2-phenylindole (DAPI, Invitrogen), respectively. The cells were then mounted in fluorescent mounting medium (DAKO Corporation).

Flk1+ MPCs [3] = assay: Apoptosis assay (Annexin V/PI) in differentiating Flk1+ MPCs; conditions: 6 and 36 hrs
Description: Apoptosis assay was performed as previously described. To determine the cell cycle, BrdU/7-AAD cell cycle analysis was performed according to the manufacturer's instructions (BD Pharmingen™). Briefly, cells were incubated with BrdU (1 mM) for 1 hr, dissociated with dissociation buffer, and stained with anti-CD144 antibody. The cells were then fixed, permeabilized, and fixed once more, followed by 1 hr incubation with DNase I (200 U) at 37┌ C. After incubation with FITC-conjugated anti-BrdU antibody for 20 min at RT, the cells were stained with 7-AAD. The cells were analyzed by FACS Aria II and the data were analyzed using FlowJo software.

[4] = Y27632 10 μM plus CsA vs CsA only, day 10.5

For `C[C@@H](N)[C@H]1CC[C@H](C(=O)Nc2ccncc2)CC1` [Y27632], the “area of self-beating CMs” value (Flk1+ MPCs [1]; Y27632 10 μM plus CsA 2 μg/mL) was “strikingly increased”, the “increase of cTnT+ CMs compared to control CsA only” value (Flk1+ MPCs [1]; Y27632 10 μM plus CsA 2 μg/mL, 6 days) was roughly 1.9 fold and the “increase of area of cTnT+ CMs” value (Flk1+ MPCs [1]; [4]) was roughly 2.3 fold. The “increase of area of αMHC GFP+ CMs” value (Flk1+ MPCs [1]; [4]) was roughly 1.7 fold, the “population of PHH3+/CD144+ ECs compared to control” value (Flk1+ MPCs [2]; 36 hrs, Y27632 10 μM plus VEGF-A) was 3.7 fold and the “number of surrounding αSMA+MCs” value (Flk1+ MPCs [2]; day 6.5, Y27632 10 μM) was “decreased”. The “size and number of CD144+ EC colonies” value (Flk1+ MPCs [2]; day 6.5, Y27632 10 μM) was “increased” and the “population of Annexin V+/PI- apoptotic cells” value (Flk1+ MPCs [3]) was “did not significantly change”.
